From patent US7582778B2, “Podophyllotoxin” (Universitatsklinikum Charite der Humboldt-Universitat zu, priority 2001, dated 2009) come the findings set out here.

For data set [1] the following is noted: for kobs: PBS buffer. Here is the method:
ProVP-16 I was incubated in THF/2% HCl and samples were periodically analyzed by HPLC at the indicated time points (A). Hydrolytic activation of ProVP-16 II was determined in phosphate buffered saline (PBS) a t the pH levels indicated (B). ProVP-16 I (3 mM) was incubated in PBS solutions and samples were periodically analyzed by HPLC. The percent conversion was calculated from areas under the curve determined by peak integration.

The nature of data set [2]: Conversion of ProVP-16 I to ProVP-16 II under acid conditions (HPLC). In kind it is physicochemical. The note with it: acid conditions (THF, 2N HCL).
Protocol: ProVP-16 I was incubated in THF/2% HCl and samples were periodically analyzed by HPLC at the indicated time points (A). […] ProVP-16 I (3 mM) was incubated in PBS solutions and samples were periodically analyzed by HPLC. The percent conversion was calculated from areas under the curve determined by peak integration.
The subject of the next data set is SW480 colon carcinoma. Conditions: SW480, vs VP-16. The method, then: (§1) The cytotoxic effect of ProVP-16 I and II was evaluated against a panel of cell lines by triplicate determinations of IC50 concentrations for both prodrugs against each cell line (A). […] Bars represent mean values ±SD.
The test system of the next data set is Molt-3 T-cell leukemia. Kind of data set: XTT cytotoxicity assay, Molt-3. Here is the method:
as §1
At the time points indicated, cell viability was determined in triplicate by the XTT assay as described in Materials and Methods. […] Results were plotted as a semilogarithmic function of drug concentration.
For orientation: Tetrazolium dyes change colour on reduction, which living cells bring about.

Data set [3] has as its system NXS2 murine neuroblastoma. Kind of data set: XTT cytotoxicity assay, NXS2. In kind it is cell-based. Here is the method:
as §1

For data set [4], the system named is CHO Chinese hamster ovary. Kind of data set: XTT cytotoxicity assay, CHO. In kind it is cell-based.
Protocol: (§4) Cytotoxicity assay: Cytotoxicity was determined by the XTT tetrazolium/formazan assay as previously described (Scudiero D A, Shoemaker R H, Paull K D, et al. Evaluation of a soluble tetrazolium/formazan assay for cell growth and drug sensitivity in culture using human and other tumor cell lines. Cancer Res. 1988; 48:4827-4833.). Briefly, cells were seeded in 96 flat bottom well plates at a density of 10^4/well in 100 μl media and exposed to drug concentrations ranging from 10^−4 to 10^−12 M. At the indicated time points (6-72 hr), cell viability was assessed by adding 50 μl XTT-reagent (1 mg/ml in serum free RPMI) activated with 0.2% v/v PMS (1.53 mg/ml in PBS) incubated at 37° C. for 4 h. Plates were analyzed in a Thermomax (Molecular Devices) micro plate reader at 450 nm. OD values were plotted as a function of drug concentration and the curves were integrated using the softmax software to obtain the IC50 concentration values.
Data set [5] has as its system Hamms human colon carcinoma cells. Kind of data set: XTT cytotoxicity assay, Hamms. In kind it is cell-based.
Protocol: as §4
Data set [6] has as its system multidrug resistant MOVP-3 cells. Kind of data set: XTT cytotoxicity assay, multidrug resistant MOVP-3 subline. In kind it is cell-based, human. The note with it: for IC50: MOVP-3 cells; for cross resistance of MOVP-3 cells: from IC50 values MOVP-3 vs Molt-3. Here is the method:
MDR-1 gene expression was determined by RT-PCR analysis on total RNA isolated from MOVP-3 and Molt-3 cells, respectively (6A). Expression of GAPDH was used as a control for the integrity of the cDNA. […] (6C) Cross-resistance of MOVP-3 cells against MDR-1 drugs (doxorubicin, melphalan, vinblastine and paclitaxel) was calculated from IC50 values (n=3) as described in 6B).
Cells: Tumor cell lines were grown in RPMI, 10% FCS (Nalm-6, Reh, Molt-3, Jurkat, HL-60, K562, HeLa, CEM, A2780, SW480) or DMEM, 10% FCS (NXS2, SK-N-SH, HT-29) in the presence of 100 IU/ml penicillin/streptomycin (P/S) and propagated under standard tissue culture conditions (5% CO2, 37° C.). All cell lines were obtained from ATCC, Rockville, Md. except NXS2 which was previously described (Lode H N, Xiang R, Varki N M, Dolman C S, Gillies S D, Reisfeld R A. Targeted interleukin-2 therapy for spontaneous neuroblastoma metastases to bone marrow. Journal of the National Cancer Institute. 1997; 89:1586-1594.) and VCR100, ADR5000 and A2780 which were kindly provided by James Beck, Greifswald, Germany (Beck J, Handgretinger R, Dopfer R, Klingebiel T, Niethammer D, Gekeler V. Expression of mdrl, mrp, topoisomerase II alpha/beta, and cyclin A in primary or relapsed states of acute lymphoblastic leukaemias. Br J Haematol. 1995; 89:356-363; Beck J F, Bohnet B, Brugger D, et al. Expression analysis of protein kinase C isozymes and multidrug resistance associated genes in ovarian cancer cells. Anticancer Res. 1998; 18:701-705.).

Another data set deals with MOVP-3 cells. Kind of data set: Cell cycle analysis (propidium iodide, FACS), MOVP-3. In kind it is cell-based, human. Conditions: 0.5 μM, up to 72 h. The method, then: (§2) Cells were harvested at indicated time points (n=3), fixed, stained with propidium iodide and analyzed by FACS as described in Materials and Methods. Per cent cells in pre G1 (apoptosic cells) were calculated from DNA histograms.
(§3) Cell cycle analysis: Distinct phases of the cell cycle were determined in a standard assay using propidium iodide. […] At indicated time points, cells were harvested and fixed in 4.5 ml ethanol (75%, −20° C.) for at least 12 h (4° C.). Cells were washed in PBS (pH 7.4) and resuspended in 250 μl PBS containing RNAse (0.3 mg/ml) and propidium iodide (50 μg/ml) and incubated in the dark (30 min, RT). The DNA histograms defining distinct phases of the cell cycle were subsequently determined in duplicates by FACS analysis and average results were expressed as per cent.

For another data set, the system named is Molt-3 parental cells. Nature of the data set: Cell cycle analysis (propidium iodide, FACS), Molt-3. In kind it is cell-based, human. The note with it: Molt-3 cells, 0.5 μM, up to 72 h. Here is the method: as §2, §3
The conditions of data set [7]: human serum, pH 7.3, 37° C.
In data set [8] the test system is porcine liver carboxyl ester hydrolase. Conditions: porcine liver carboxyl ester hydrolase, pH 7.3, 37° C.
For the next data set, the system named is Molt-3/MDR-1 cells. The note with it: stable transfection with pMDR-IRESpuro.
The target in another data set is MDR-1 p-glycoprotein (Homo sapiens, UniProt P08183). The note with it: MOVP-3 cells; for effect on the decrease in FL-1 signal (JC-1 efflux): coincubation with 3×10^−4 M.
The procedure of data set [9]: The body weight was determined for each animal over time and calculated as per cent of total weight observed on day 0. An event as indicated by Kaplan Maier plots is defined by loss of body weight greater than 20%.
Body weights and survival were monitored over time.

The subject of the next data set is MOVP-3 primary tumors. Kind of data set: Anti-tumor effect in a multidrug resistant T-cell leukemia xenograft model. Format: in vivo, SCID mice. The note with it: 15 mg/kg i.p. Here is the method:
The anti-tumor effect of ProVP-16 II therapy was determined in a multidrug resistant xenograft model (B,C). SCID mice (n=7) were injected s.c. with 5×10^6 MOVP-3 cells and primary tumors of 250 mm^3 average size were established 55 days after inoculation. […] Tumor growth was monitored by microcaliper measurements and tumor size was calculated as described in Materials and Methods (B). […] The body weight of treated animals was determined over time and calculated as per cent of body weight on day 57 (C).
Anti-tumor effect in a T-cell leukemia xenograft model: Primary tumors were induced by injection of 5×10^6 MOVP 3 cells in 100 μl PBS (pH 7.4) into the skin of the left lateral flank of each SCID mouse. Established primary tumors were palpable 55 days after injection. […] Each mouse received a total of 7 injections on days 55,57,59,69,71,87,90 after tumor cell inoculation. Primary tumor size was determined over time by micro caliper measurements and volumes were calculated according to ½×with^2×length. Body weight was determined on a standard digital scale.

Where [10] appears, read: Molt-3, time course, 48-72 h after incubation.
[11] abbreviates: Molt-3 cells, resistance experiment (FIG. 4B).

Like-named read-outs stand apart in the source and are kept apart here.

Sequence of MDR-1 p-glycoprotein (P08183 whole entry): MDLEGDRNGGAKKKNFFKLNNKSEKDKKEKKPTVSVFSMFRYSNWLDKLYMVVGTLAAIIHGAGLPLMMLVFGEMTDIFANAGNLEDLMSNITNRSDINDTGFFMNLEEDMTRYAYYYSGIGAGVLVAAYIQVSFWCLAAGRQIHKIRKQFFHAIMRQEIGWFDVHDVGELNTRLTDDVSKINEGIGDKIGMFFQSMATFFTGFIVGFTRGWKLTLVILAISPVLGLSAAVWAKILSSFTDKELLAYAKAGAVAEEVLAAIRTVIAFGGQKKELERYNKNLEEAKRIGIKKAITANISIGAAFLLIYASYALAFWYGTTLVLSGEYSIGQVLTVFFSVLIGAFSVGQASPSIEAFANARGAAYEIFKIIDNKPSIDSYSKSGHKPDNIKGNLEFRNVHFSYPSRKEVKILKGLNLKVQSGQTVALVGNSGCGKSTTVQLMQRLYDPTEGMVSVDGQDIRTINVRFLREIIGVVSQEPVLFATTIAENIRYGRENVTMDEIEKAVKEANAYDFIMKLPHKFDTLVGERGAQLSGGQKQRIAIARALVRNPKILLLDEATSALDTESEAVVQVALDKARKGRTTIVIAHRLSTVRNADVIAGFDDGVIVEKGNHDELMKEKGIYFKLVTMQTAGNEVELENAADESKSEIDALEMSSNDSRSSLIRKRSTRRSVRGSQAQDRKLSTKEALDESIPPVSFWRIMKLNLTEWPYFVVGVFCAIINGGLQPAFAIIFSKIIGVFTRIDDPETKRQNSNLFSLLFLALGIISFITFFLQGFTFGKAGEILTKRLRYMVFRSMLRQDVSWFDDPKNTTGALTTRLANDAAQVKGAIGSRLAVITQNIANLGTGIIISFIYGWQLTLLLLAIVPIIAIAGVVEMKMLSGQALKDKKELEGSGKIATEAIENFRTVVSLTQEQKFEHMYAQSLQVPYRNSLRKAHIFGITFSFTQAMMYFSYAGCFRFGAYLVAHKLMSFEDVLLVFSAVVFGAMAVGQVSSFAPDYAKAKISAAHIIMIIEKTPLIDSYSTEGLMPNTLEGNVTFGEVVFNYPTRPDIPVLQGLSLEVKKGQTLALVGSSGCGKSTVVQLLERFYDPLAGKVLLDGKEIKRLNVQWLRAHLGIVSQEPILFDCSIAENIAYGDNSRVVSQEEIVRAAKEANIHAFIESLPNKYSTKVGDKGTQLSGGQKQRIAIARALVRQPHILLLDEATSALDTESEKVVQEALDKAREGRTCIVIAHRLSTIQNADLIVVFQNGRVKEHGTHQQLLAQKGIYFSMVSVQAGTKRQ
Protocol for MDR-1 p-glycoprotein: Samples incubated with 2 μM cyclosporin A were used as positive controls (data not shown). Cell fluorescence was recorded using a FAC Sort flow cytometer (Becton Dickinson) and JC-1 signals were detected on the FL1-channel (530 nm filter) for analysis of the dye monomer.
Protocol for Molt-3/MDR-1 cells: Stable transfection of MDR-1: The MDR-1 cDNA was kindly provided in a pUC based plasmid by C. Baum, University of Hamburg. For mammalian expression, the MDR-1 cDNA was cloned into the bicistronic eukaryotic expression plasmid pIRESpuro using NotI and BamHI restriction sites. pMDR-IRESpuro was transfected into Molt-3 cells by electroporation (960 μF, 250V). Stable transfectants were selected with 300 ng/ml puromycin.
OD values were plotted as a function of drug concentration and the curves were integrated using the softmax software to obtain the IC50 concentration values.

For orientation: IC50 means the point on the concentration scale where inhibition reaches its midpoint. A low value points to greater potency. On to `COc1cc(C2c3cc4c(cc3C(OC3OC5COC(C)OC5C(O)C3O)C3COC(=O)C23)OCO4)cc(OC)c1OC(=O)OCC1COC(C)(C)O1` (stereo not shown) [ProVP-16 I], for which the “conversion in PBS” value in data set [1] (PBS (pH 7.4, 37° C.)) is on record as “no measurable conversion”. For the same compound, the kobs result in [1] (pH 5.0-10.0, 37° C.) is on record as “no conversion”; in data set [1] (pH 11.8, 37° C.), 8.333 ± 0.50 10^−3-min^−1; in data set [7], 0.923 ± 0.046 10^−3-min^−1; in data set [8], 48.89 ± 3.62 10^−3-min^−1. The “stability under basic buffer conditions” value in [1] (basic buffer conditions (pH <10.0)) is listed as “inert”. Further, the “degradation of the glycoside moiety” value in [2] was “about 10%”. In data set [2], the “time for conversion to ProVP-16 II” value is on record as at most 2 h. Also, in the data set on SW480 colon carcinoma, the “IC50 fold lower than parent compound” value is 1000 fold. The IC50 with Molt-3 T-cell leukemia (setting [10]) was found to be 10 nM; in the data set with Molt-3 T-cell leukemia (setting [11]), 20 nM; in data set [6], 20 nM. In addition, in the data set with Molt-3 T-cell leukemia (Molt-3, time of incubation), the “onset of cytotoxic activity” value was over 24 h. In the data set on Molt-3 T-cell leukemia (Molt-3, up to 12 h of incubation), the “cytotoxic effects at early incubation” value is recorded as “absence of cytotoxic effects”. The “response to proetoposides compared with etoposide” value in [3], in data set [4] and in data set [5] was “responded equally well” throughout. Moreover, the “resistance of MOVP-3 cells (IC50 MOVP-3÷IC50 Molt-3)” value in [6] (MOVP-3 vs Molt-3) is recorded as “no significant difference”. Besides, the “induction of apoptosis (pre-G1 peak)” value with MOVP-3 cells is recorded as “very effective in inducing a steady increase in the pre-G1 peak”; with Molt-3 parental cells, “Induction of apoptosis was also demonstrated”. For the same compound, the t1/2 in [7] came out at 750.8 min; in [8], 14.2 min; in data set [8] (listed as Prodrug I), 14.17 min. In the data set with Molt-3/MDR-1 cells, the “sensitivity / resistance of Molt-3/MDR-1 cells” value (shortened to “sensitivity / resistance”) is listed as “remained fully sensitive”. In addition, the “effect on the decrease in FL-1 signal (JC-1 efflux)” value on MDR-1 p-glycoprotein is on record as “abrogated”. At MDR-1 p-glycoprotein (data not shown), the “lowest concentration inhibiting MDR-1 mediated efflux” value was 10 µM.

As to `COc1cc([C@@H]2c3cc4c(cc3[C@@H](O[C@@H]3O[C@@H]5CO[C@@H](C)O[C@H]5[C@H](O)[C@H]3O)[C@H]3COC(=O)[C@H]23)OCO4)cc(OC)c1O` [VP-16, etoposide, reference compound], the IC50 in the data set on Molt-3 T-cell leukemia (setting [10]) is 65 nM; with Molt-3 T-cell leukemia (setting [11]), 20 nM; in data set [6] it was 2000 nM. Besides, in [6] (MOVP-3 model with stably amplified MDR-1), the resistance in vitro is recorded as 100 ×. For the same compound, the “cross resistance of MOVP-3 cells” value in data set [6] is on record as “cross resistance”. The “induction of apoptosis (pre-G1 peak)” value with MOVP-3 cells is “ineffective to induce apoptosis”; with Molt-3 parental cells, “induce apoptosis in Molt-3 cells to a similar extent as ProVP-16 I and II”. This compound had a maximum tolerated dose in [9] (defined by a decrease in body weight <20%) of 20 mg/kg. In data set [9] (mouse, in vivo), the “mice with a weight loss >20%” value is 5/6. In addition, the anti-tumor response result in the data set on MOVP-3 primary tumors is given as “no anti-tumor response”. The “transient average weight loss” value in the data set with MOVP-3 primary tumors is 20%. The “sensitivity / resistance” value with Molt-3/MDR-1 cells was “resistance”. Also, the “effect on the decrease in FL-1 signal (JC-1 efflux)” value at MDR-1 p-glycoprotein is given as “ineffective in modulating MDR-1 function”.

`COc1cccc2c1C(=O)c1c(O)c3c(c(O)c1C2=O)C[C@@](O)(C(=O)CO)C[C@@H]3O[C@H]1C[C@H](N)[C@H](O)[C@H](C)O1` [doxorubicin]: in [6], the “cross resistance of MOVP-3 cells” value was “cross resistance”. Moreover, the “sensitivity / resistance” value with Molt-3/MDR-1 cells is recorded as “resistance”.

Take `N[C@@H](Cc1ccc(N(CCCl)CCCl)cc1)C(=O)O` [melphalan]: the “cross resistance of MOVP-3 cells” value in [6] is “statistically significant”.

Regarding `CC(=O)O[C@H]1C(=O)[C@@]2(C)[C@H]([C@H](OC(=O)c3ccccc3)[C@]3(O)C[C@H](OC(=O)[C@H](O)[C@@H](NC(=O)c4ccccc4)c4ccccc4)C(C)=C1C3(C)C)[C@]1(OC(C)=O)CO[C@@H]1C[C@@H]2O` [paclitaxel], the “cross resistance of MOVP-3 cells” value in [6] is “cross resistance”. In the data set on Molt-3/MDR-1 cells, the “sensitivity / resistance” value is listed as “resistance”.

In the case of `CC[C@]1(O)C[C@@H]2CN(CCc3c([nH]c4ccccc34)[C@@](C(=O)OC)(c3cc4c(cc3OC)N(C)[C@H]3[C@@](O)(C(=O)OC)[C@H](OC(C)=O)[C@]5(CC)C=CCN6CC[C@]43[C@@H]65)C2)C1` [vinblastine], in data set [6], the “cross resistance of MOVP-3 cells” value is reported as “cross resistance”. Further, the “sensitivity / resistance” value in the data set on Molt-3/MDR-1 cells is “resistance”.
